Series [1] in a line: Maximum tolerated dose of jervine on BALB/c nude mice. Particulars: 14 days. The format is in vivo. How it is done:
Result indicates the maximum tolerated dose of jervine is higher than 80 mg/kg for BALB/c mice.
Study the maximum tolerated dose of jervine on BALB/c nude mice 9 BALB/c nude mice were divided equally into 3 groups. The mice were orally dosed at 50 mg/kg, 80 mg/kg and 150 mg/kg by groups. […] It was initialy determinded that the maximum tolerated dose is higher than 80 mg/kg for BALB/c nude mice.

For series [2], the system named is hedgehog signaling pathway. As to the kind of experiment: Gli luciferase reporter assay in Gli Reporter-NIH3T3 cells stimulated with mShh. Particulars: mShh 1 μg/ml, 27 hours, read-out: IC50 for inhibition of the hedgehog signaling pathway. The series is classed as cell-based. As for the experimental part: In vitro test: Experimental method to measure the inhibition of jervine on the hedgehog signaling pathway
Hedgehog signaling pathway Gli Reporter-NIH3T3 cells were cultured in DMEM medium with 10% Calf serum, 1% Penn-strep, 500 μg/ml of Geneticin.
To perform the Gli luciferase reporter assay, Gli Reporter-NIH3T3 cells were seeded at 25,000 cells per well into white clear-bottom 96-well microplate in 100 μl of growth medium. Cells were incubated at 37° C. and 5% CO2 for overnight. Next day remove the medium from wells and add 45 μl of diluted inhibitor in assay medium (Opti-MEM Reduced Serum Medium+0.5% calf serum+1% non-essential amino acids+1 mM Na-pyruvate+10 mM HEPES+1% Pen/Strep) per well. Incubate cells at 37° C. in a CO2 incubator for 2 hours. Then add 5 μl of diluted mShh in assay medium to wells (final [mShh]=1 μg/ml). Add […] of assay medium to cell-free control wells. Cells were treated for 27 hours. […] Luminescence was measured using a luminometer(BioTek Synergy™ 2 microplate reader) 2.3 Data Analysis
Reporter assays in triplicate were performed at each concentration. The luminescence intensity data were analyzed using the computer software, Graphpad Prism. In the absence of the compound, the luminescence intensity (Lt) in each data set was defined as 100%. In the absence of cells, the luminescence intensity (Lb) in each data set was defined as 0%. […]
In general terms: A reporter such as luciferase makes a cellular process visible.

The subject of series [3] is BXPC-3 human pancreatic carcinoma xenograft. The series is classed as in vivo, BALB/c nude mice. Particulars: BXPC-3 xenograft.
Method: BXPC-3 tumor cells cultured in RMPI1640 medium supplemented with 10% heat inactivated fetal bovine serum, all cells used EDTA containing trypsin, passaged twice a week, incubated at 37° C. in an atmosphere of 5% CO2 in air and cultured.
40 BALB/c nude mice, female, 6-8 weeks old, 18-22 g in body weight, were purchased from Shanghai Laboratory Animal Center (SLAC, Shanghai, China).
Each mouse was inoculated subcutaneously at the right flank region with BXPC-3 tumor cells (5×10^7) in 0.1 ml of phosphate-buffered saline with matrigel via a 1 ml syringe for tumor development. The treatments were started when the mean tumor size reaches approximately 200 (150-250) mm^3 at 9 days after inoculation.
Series [4] in a line: Pharmacokinetic study of jervine in mice. The series is classed as in vivo. The settings on record: CD-1 mice. How it is done: Orally dosed: A total of 3 male experimental CD-1 mice, approximately 8 weeks of age at receipt was administered jervine via oral gavage at 10 mg/kg. Blood samples (300 μL) were collected via cardiac puncture predose and at 2 minute, 5 minute, 15 minute, 0.5 hour, 1 hour, 2 hour, 4 hour, 8 hour, 24 hours postdose. Plasma was made form the blood samples in order to measure the concentration of jervine.

The test system of series [5] is NCI-H2122 lung cancer xenograft. The series is classed as in vivo, BALB/c nude mice.
Method: (§1) NCI-H2122 cells were cultured in RMPI1640 medium, A431 tumor cells were cultured in DMEM medium, all the medium were supplemented with 10% heat inactivated fetal bovine serum, all cells used EDTA containing trypsin, passaged twice a week, incubated at 37° C. in an atmosphere of 5% CO2 in air and cultured.
(§2) 110 BALB/c nude mice, female, 6-8 weeks old, 18-22 g in body weight, were purchased from Shanghai Laboratory Animal Center (SLAC, Shanghai, China). The mice were kept in individually ventilated cage (NC) systems at constant temperature and humidity, with 20.5-24.5° C. for temperature, 40-75% for humidity. With 4 animals in each cage, the size ogf the cage is 325 mm×210 mm×180 mm. The bedding material is corn cob, which is changed twice per week. Animals had free access to irradiation sterilized dry granule food and water during the entire study period. The food and water were changed twice per week. The identification labels for each cage contain the following information: number of animals, sex, strain, and date received treatment, study number, group number, and the starting date of the treatment. Animals were marked by ear coding. The experiments started one week after receiving the animals.
Each mouse were inoculated subcutaneously at the right flank region with NCI-H2122 tumor cells (5×10^7/ml), NCI-H1703 tumor cells (1×10^8/ml) and A431 tumor cells (5×10^7/ml), respectively in a mixture of phosphate-buffered saline and matrigel for tumor development via a 1 ml syringe. The treatments were started when the mean tumor size reached about 200 (150-250) mm^3. […]
8.1 Tumor size was measured twice weekly in two dimensions using a caliper, and the volume was expressed in mm^3 using the formula: V=0.5 a×b^2 where a and b are the long and short diameters of the tumor, respectively. […]
(§3) A one-way analysis of variance was performed followed by multiple comparison procedures. All data was analyzed using SPSS 18.0.*p <0.05 or **P<0.01 are generally considered statistically significant when compared with vehicle group.
Series [6] relates to A431 basal cell carcinoma xenograft. As to the kind of experiment: A431 basal cell carcinoma xenograft tumor model, inoculated subcutaneously. The format is in vivo, BALB/c nude mice. Particulars: 40-80 mg/kg p.o. QD × 21 days.
Method: as §1, §2
(§4) Each mouse were inoculated subcutaneously at the right flank region with NCI-H2122 tumor cells (5×10^7/ml), NCI-H1703 tumor cells (1×10^8/ml) and A431 tumor cells (5×10^7/ml), respectively in a mixture of phosphate-buffered saline and matrigel for tumor development via a 1 ml syringe. The treatments were started when the mean tumor size reached about 200 (150-250) mm^3.
(§5) After tumor volume reached 3000 mm^3 or average tumor volume reached 2000 mm^3, before experimental animals emaciated or coma, anesthesia and euthanasia will be performed. During the experiment, if the weight loss of experimental animal reaches 20%, administration will be discontinued and experimental animals will be observed until the weight returned to 10% range before restart of the administration. In this experiment, when the mean tumor volume reached 2000 mm^3 or at the end of 59 days after the administration, experimental animals will be anesthesiaed to collect tumor mass which will be weighed and photographed.
(§6) 8.1 Tumor size was measured twice weekly in two dimensions using a caliper, and the volume was expressed in mm^3 using the formula: V=0.5 a×b^2 where a and b are the long and short diameters of the tumor, respectively.
(§7) 8.2 T/C, percent value, T and C were the mean volume of the treated and control groups, respectively, on a given day.
as §3
The next series deals with A431 xenograft. Described as above. The format is in vivo, BALB/c nude mice.
The mark [7] stands for this setting: male, mouse, PO 10 mg/Kg, plasma.

pIC50: −log10 of the molar value. Entries after “also recorded” stand apart in the source; their conditions may differ. Read-outs that look alike come from different tables or passages of the source.

Method for A431 xenograft: as §1, §2, §4, §5, §6, §7, §3

For orientation: MTD means the highest dose tested that stayed within the study's limit of toxicity. A high value points to better tolerability. In general, pIC50 refers to the IC50 on a negative log10 scale, so that one unit is a factor of ten. What is called bioavailability is the share of a dose that reaches the circulation, judged against a reference dose that is usually intravenous. The term AUC(0-inf) denotes the area under the concentration-time curve extrapolated to infinity. As a reminder, the AUC(0-t) is the area under the concentration-time curve up to a stated or last time point. Read a high AUC(0-t) as high exposure. As a reminder, the Cmax is the maximum level reached in the sampled fluid or tissue. With `CC1=C2C(=O)[C@H]3[C@@H](CC=C4C[C@@H](O)CC[C@@]43C)[C@@H]2CC[C@]12O[C@@H]1C[C@H](C)CN[C@H]1[C@H]2C` [jervine, Jervine], the animal deaths result is “no animal dead” in series [1] (50 mg/kg oral); “no animal die; also recorded: no animal dead” in series [1] (80 mg/kg oral); “Two” in series [1] (150 mg/kg oral, 3 mice per group). The weight loss entry in series [1] (80 mg/kg oral gavage) was “no significant weight loss”. In series [1] (mouse, in vivo, oral, BALB/c nude mice), this compound showed an MTD greater than 80 mg/kg. The pIC50 in series [2] was 7.30. In addition, the “T/C value (tumor volume)” value in series [3] (20 mg/kg iv QD × 21 days) is 25.8%; in series [3] (40 mg/kg iv QD × 21 days), 59.1%; in series [3] (80 mg/kg iv QD × 21 days) it was 54.2%; in series [5] (40 mg/kg p.o. QD for 21 days), 0.79; in series [5] (60 mg/kg p.o. QD for 21 days), 0.701; in series [5] (80 mg/kg p.o. QD for 21 days) it was 0.594. For the same compound, the “T/C value (tumor volume)” value with A431 xenograft (40 mg/kg p.o. QD for 21 days) was determined as 0.52; in the series on A431 xenograft (60 mg/kg p.o. QD for 21 days), 0.80; in the series with A431 xenograft (80 mg/kg p.o. QD for 21 days) it was 0.82. Also, the “F (bioavailability)” value in series [4] (PO 10 mg/Kg, 10 mg/kg) turned out to be 41.2%. In addition, the bioavailability in series [4] (male, CD-1, mouse, plasma, po, 10 mg/kg, read-out: F (bioavailability)) was determined as 41%. In series [4] (setting [7]), the area under the curve AUC(0-inf) worked out at 2260 ng·h/mL. Moreover, the area under the curve AUC(0-t) in series [4] (setting [7]) was 1790 ng·h/mL. The same compound gave a Cmax in series [4] (setting [7]) of 368 ng/mL. For the same compound, in series [4] (male, mouse, PO 10 mg/Kg, plasma, read-out: T½ (converted)), the half-life is 708 min. Further, the “side effects / weight loss of the mice” value in series [6] is “no obvious side effects; also recorded: no significant of weight lose”.

The values above are taken from patent US20150259313A1, “Antitumor Agent” (priority 2014, published 2015).
